Our source for the Time, Ratio IC50 and IC50 values is ChEMBL document CHEMBL1777779, “Discovery of novel quaternary ammonium derivatives of (3R)-quinuclidinyl carbamates as potent and long acting muscarinic antagonists” (Bioorg Med Chem Lett, 2011).

Experiment [1] concerns Cavia porcellus. The experiment in a line: Inhibition of acetylcholine-induced bronchospasm in anesthetized Dunkin-Hartley guinea pig assessed as time required to recover 50% of maximum inhibitory effect at 1 mg/ml administered via nebulizer. It is filed as functional.
The target of experiment [2] is Muscarinic acetylcholine receptors; M2 & M3 (Homo sapiens) (UniProt P20309+P08172). The experiment in a line: Selectivity ratio of IC50 for human muscarinic M2 receptor to IC50 for human muscarinic M3 receptor.
The target of experiment [3] is Muscarinic acetylcholine receptor M1 and M3 (Homo sapiens) (UniProt P20309+P11229). The experiment in a line: Selectivity ratio of IC50 for human muscarinic M1 receptor to IC50 for human muscarinic M3 receptor.
Experiment [4] has as its target T1, Muscarinic acetylcholine receptor M2 (Homo sapiens, UniProt P08172).
T1 sequence (P08172 whole entry): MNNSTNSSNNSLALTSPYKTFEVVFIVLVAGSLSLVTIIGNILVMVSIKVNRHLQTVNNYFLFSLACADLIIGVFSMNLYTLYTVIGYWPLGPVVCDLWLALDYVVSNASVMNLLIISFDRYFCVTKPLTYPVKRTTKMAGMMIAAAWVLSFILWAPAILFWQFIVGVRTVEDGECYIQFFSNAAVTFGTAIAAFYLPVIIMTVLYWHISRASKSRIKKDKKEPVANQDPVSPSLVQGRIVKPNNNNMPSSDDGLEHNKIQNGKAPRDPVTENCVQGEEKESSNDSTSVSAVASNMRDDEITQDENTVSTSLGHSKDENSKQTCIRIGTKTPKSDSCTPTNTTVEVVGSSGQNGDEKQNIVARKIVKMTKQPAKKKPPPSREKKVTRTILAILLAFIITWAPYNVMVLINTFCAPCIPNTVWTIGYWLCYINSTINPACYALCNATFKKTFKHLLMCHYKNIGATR
The experiment in a line: Displacement of [3H]NMS from human muscarinic M2 receptor expressed in CHO-K1 cells after 1 hr by scintillation counting. It is filed as cell-based.

Experiment [5] has as its target T2, Muscarinic acetylcholine receptor M1 (Homo sapiens, UniProt P11229).
T2 sequence (P11229 whole entry): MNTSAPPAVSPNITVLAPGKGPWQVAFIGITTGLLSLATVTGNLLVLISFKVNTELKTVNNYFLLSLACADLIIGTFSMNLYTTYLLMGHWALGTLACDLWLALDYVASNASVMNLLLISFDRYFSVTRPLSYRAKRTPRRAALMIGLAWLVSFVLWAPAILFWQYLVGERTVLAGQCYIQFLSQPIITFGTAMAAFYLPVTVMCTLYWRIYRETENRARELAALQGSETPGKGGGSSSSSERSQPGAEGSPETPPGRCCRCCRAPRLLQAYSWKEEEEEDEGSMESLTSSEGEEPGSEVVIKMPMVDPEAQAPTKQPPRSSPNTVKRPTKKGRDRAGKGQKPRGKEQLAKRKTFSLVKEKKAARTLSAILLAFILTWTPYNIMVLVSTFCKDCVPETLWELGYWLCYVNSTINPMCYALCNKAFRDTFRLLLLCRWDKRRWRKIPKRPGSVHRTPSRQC
The experiment in a line: Displacement of [3H]NMS from human muscarinic M1 receptor expressed in CHO-K1 cells after 1 hr by scintillation counting. It is filed as cell-based. Background: Displacement assays read how much labelled ligand stays bound in the presence of the test substance.

Experiment [6] concerns the target Muscarinic acetylcholine receptor M3 (Homo sapiens, UniProt P20309). The experiment in a line: Displacement of [3H]NMS from human muscarinic M3 receptor expressed in CHO-K1 cells after 1 hr by scintillation counting. It is filed as cell-based.

What is called IC50 is the concentration that gives 50% inhibition.

Sequence of Muscarinic acetylcholine receptor M1 and M3 (Homo sapiens) (P20309 whole entry, looked up, one chain of several): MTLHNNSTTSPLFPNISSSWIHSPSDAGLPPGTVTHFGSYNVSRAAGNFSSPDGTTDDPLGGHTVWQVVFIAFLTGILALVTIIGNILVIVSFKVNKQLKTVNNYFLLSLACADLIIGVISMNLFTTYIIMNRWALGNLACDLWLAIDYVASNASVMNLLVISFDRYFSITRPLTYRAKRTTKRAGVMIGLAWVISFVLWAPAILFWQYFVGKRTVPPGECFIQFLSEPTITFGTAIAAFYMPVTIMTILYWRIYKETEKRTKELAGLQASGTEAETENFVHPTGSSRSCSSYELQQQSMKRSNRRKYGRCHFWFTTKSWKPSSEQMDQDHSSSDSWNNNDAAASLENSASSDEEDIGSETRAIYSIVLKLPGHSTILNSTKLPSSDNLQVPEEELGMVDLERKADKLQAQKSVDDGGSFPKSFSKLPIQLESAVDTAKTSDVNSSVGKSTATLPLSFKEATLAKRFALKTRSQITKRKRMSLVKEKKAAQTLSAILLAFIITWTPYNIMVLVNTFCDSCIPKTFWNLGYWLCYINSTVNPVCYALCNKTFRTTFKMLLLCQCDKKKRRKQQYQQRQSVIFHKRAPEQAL
Sequence of Muscarinic acetylcholine receptor M3 (P20309 whole entry): as the sequence (P20309 whole entry, looked up, one chain of several) above
Sequence of Muscarinic acetylcholine receptors; M2 & M3 (Homo sapiens) (P20309 whole entry, looked up, one chain of several): as above

For `O=C(O[C@H]1C[N+]2(CCOc3ccccc3)CCC1CC2)N(Cc1ccccc1)c1ccccc1.[Br-]`, the Time in experiment [1] was over 6 h. The results for the Ratio IC50 in experiment [2] and in experiment [3] were 3.9 and 1.7, respectively. Besides, the IC50 in experiment [4] turned out to be 3.9 nM; in experiment [5], 1.7 nM; in experiment [6], 1 nM.

With `Cc1cccc(N(Cc2cc(F)c(F)cc2F)C(=O)O[C@H]2C[N+]3(CCCc4ccccc4)CCC2CC3)c1.[Br-]`, the Time in experiment [1] was under 6 h. Besides, the Ratio IC50 in experiment [2] worked out at 33.1; in experiment [3], 3.3. For the same molecule, the IC50 stood at 29.8 nM in experiment [4], 3 nM in experiment [5] and 0.9 nM in experiment [6].

`O=C(O[C@H]1C[N+]2(CCCc3cccs3)CCC1CC2)N(Cc1cccs1)c1ccccc1.[Br-]`: in experiment [1], the Time was over 6 h. In addition, the figures for the Ratio IC50 in experiment [2] and in experiment [3] were 6.4 and 3.2, respectively. Moreover, the IC50 in experiment [4] is 3.2 nM; in experiment [5], 1.6 nM; in experiment [6], 0.5 nM.

As for `CCCN(C(=O)O[C@H]1CN2CCC1CC2)c1ccccc1`, the Ratio IC50 in experiment [2] came to 4.9; in experiment [3] it was 0.4. Moreover, the IC50 in experiment [4] worked out at 349 nM; in experiment [5], 26.7 nM; in experiment [6], 71.1 nM.

Regarding `O=C(O[C@H]1CN2CCC1CC2)N1CCc2ccccc2[C@@H]1c1ccccc1` [SOLIFENACIN SUCCINATE], the Ratio IC50 in experiment [2] came to 4.4; in experiment [3], 0.5. Also, the IC50 in experiment [4] was 574 nM; in experiment [5] it was 63.5 nM; in experiment [6], 131 nM.

For the molecule `Cc1cccc(N(Cc2cc(F)c(F)cc2F)C(=O)O[C@H]2C[N+]3(CCOc4ccccc4)CCC2CC3)c1.[Br-]`, the Time in experiment [1] is under 6 h. In addition, the Ratio IC50 in experiment [2] was 23.3; in experiment [3], 2. Besides, the IC50 worked out at 28 nM in experiment [4], 2.4 nM in experiment [5] and 1.2 nM in experiment [6].

Consider `O=C(O[C@H]1C[N+]2(CCCc3cccs3)CCC1CC2)N(Cc1ccsc1)c1ccccc1.[Br-]`, for which the Time in experiment [1] was over 6 h. Moreover, the Ratio IC50 amounted to 14 in experiment [2] and 3.3 in experiment [3]. Further, the IC50 in experiment [4] is 8.4 nM; in experiment [5], 2 nM; in experiment [6], 0.6 nM.

With `CCCCCN(C(=O)O[C@H]1CN2CCC1CC2)c1ccccc1`, the Ratio IC50 in experiment [2] was 8; in experiment [3], 0.5. For the same molecule, the IC50 in experiment [4] was found to be 13.6 nM; in experiment [5], 0.8 nM; in experiment [6] it was 1.7 nM.

Regarding `O=C(O[C@H]1C[N+]2(CCc3ccccc3)CCC1CC2)N(Cc1ccccc1)c1ccccc1.[Br-]`, the Time in experiment [1] is under 2 h. In addition, the Ratio IC50 in experiment [2] turned out to be 2.9; in experiment [3] it was 0.85. The IC50 in experiment [4] came to 50.9 nM; in experiment [5], 15.1 nM; in experiment [6], 17.7 nM.

As for `O=C(O[C@H]1CN2CCC1CC2)N(Cc1cccs1)Cc1cccs1`, the values for the Ratio IC50 in experiment [2] and in experiment [3] were 3.8 and 0.4, respectively. The IC50 in experiment [4] is 22.7 nM; in experiment [5], 2.4 nM; in experiment [6] it was 5.9 nM.

With `O=C(O[C@H]1CN2CCC1CC2)N(Cc1ccsc1)c1ccccc1`, in experiment [1], the Time is under 4 h. Also, the results for the Ratio IC50 in experiment [2] and in experiment [3] were 4.7 and 0.4, respectively. Moreover, the IC50 in experiment [4] was found to be 4.7 nM; in experiment [5], 0.4 nM; in experiment [6] it was 1 nM.

As to `O=C(O[C@H]1CN2CCC1CC2)N(Cc1cccc(F)c1)c1cccc(F)c1`, the Ratio IC50 in experiment [2] was 11.2; in experiment [3], 0.6. The values for the IC50 in experiment [4], in experiment [5] and in experiment [6] were 26.8 nM, 1.5 nM and 2.4 nM, respectively.

Regarding `CCCCN(C(=O)O[C@H]1C[N+]2(CCc3ccccc3)CCC1CC2)c1ccccc1`, the Ratio IC50 worked out at 6.3 in experiment [2] and 1.7 in experiment [3]. Also, the IC50 was found to be 121 nM in experiment [4], 33.3 nM in experiment [5] and 19 nM in experiment [6].

For `Cc1cccc(N(Cc2cc(F)c(F)cc2F)C(=O)O[C@H]2CN3CCC2CC3)c1`, the Ratio IC50 in experiment [2] is 32.7; in experiment [3] it was 0.7. Besides, the IC50 in experiment [4] came out at 45.8 nM; in experiment [5] it was 1 nM; in experiment [6] it was 1.4 nM.

Take `CCCCN(C(=O)O[C@H]1C[N+]2(CCOc3ccccc3)CCC1CC2)c1ccccc1.[Br-]`: the Time in experiment [1] is over 6 h. The Ratio IC50 is 11.1 in experiment [2] and 1.7 in experiment [3]. In addition, the values for the IC50 in experiment [4], in experiment [5] and in experiment [6] were 8.9 nM, 1.4 nM and 0.8 nM, respectively.

As to `CCCCN(C(=O)O[C@H]1C[N+]2(CCCc3cccs3)CCC1CC2)c1ccccc1.[Br-]`, the Time in experiment [1] is over 6 h. In addition, the Ratio IC50 in experiment [2] was found to be 18.2; in experiment [3], 3.3. Besides, the results for the IC50 in experiment [4], in experiment [5] and in experiment [6] were 10.9 nM, 2 nM and 0.6 nM, respectively.

As for `O=C(O[C@H]1CN2CCC1CC2)N(Cc1ccccc1)c1ccc(F)cc1`, the Ratio IC50 was found to be 7.7 in experiment [2] and 0.5 in experiment [3]. The IC50 is 116 nM in experiment [4], 8.3 nM in experiment [5] and 15 nM in experiment [6].

On to `O=C(O[C@H]1C[N+]2(CCOc3ccccc3)CCC1CC2)N(Cc1cccs1)c1ccccc1.[Br-]`, for which the Time in experiment [1] is over 6 h. Moreover, the Ratio IC50 in experiment [2] was found to be 3.7; in experiment [3], 1.3. The IC50 worked out at 1.1 nM in experiment [4], 0.4 nM in experiment [5] and 0.3 nM in experiment [6].

`O=C(O[C@H]1CN2CCC1CC2)N(Cc1cc(F)c(F)c(F)c1)c1cccc(F)c1` [TARAFENACIN]: the Ratio IC50 in experiment [2] was found to be 64.9; in experiment [3], 0.6. In addition, the IC50 turned out to be 97.3 nM in experiment [4], 0.9 nM in experiment [5] and 1.5 nM in experiment [6].

For the molecule `CCCCN(Cc1cccs1)C(=O)O[C@H]1CN2CCC1CC2`, the Ratio IC50 in experiment [2] stood at 4.3; in experiment [3], 0.04. The IC50 in experiment [4] worked out at 76.2 nM; in experiment [5], 0.8 nM; in experiment [6], 17.7 nM.

As for `O=C(O[C@H]1CN2CCC1CC2)N(CCc1ccccc1)c1ccccc1`, the Ratio IC50 is 11.7 in experiment [2] and 0.3 in experiment [3]. In addition, the IC50 in experiment [4] amounted to 42.1 nM; in experiment [5], 1 nM; in experiment [6], 3.6 nM.

In the case of `C[N+]12CCC(CC1)[C@@H](OC(=O)N(Cc1cccs1)c1ccccc1)C2`, the Ratio IC50 in experiment [2] amounted to 1.8; in experiment [3], 0.5. Besides, the IC50 in experiment [4] was determined as 33.1 nM; in experiment [5], 9.2 nM; in experiment [6], 18.6 nM.

Turning to `Cc1ccc(N(Cc2ccccc2)C(=O)O[C@H]2CN3CCC2CC3)cc1`, the Ratio IC50 was found to be 2.6 in experiment [2] and 0.5 in experiment [3]. For the same molecule, the values for the IC50 in experiment [4], in experiment [5] and in experiment [6] were 196 nM, 39.7 nM and 74.7 nM, respectively.

On to `O=C(O[C@H]1CN2CCC1CC2)N(c1ccccc1)c1ccccc1`, for which the Ratio IC50 in experiment [2] came out at 3.5; in experiment [3] it was 0.4. Also, the IC50 came out at 2780 nM in experiment [4], 319 nM in experiment [5] and 797 nM in experiment [6].

Take `O=C(Nc1ccccc1-c1ccccc1)OC12CCN(CC1)CC2`: the Ratio IC50 in experiment [2] worked out at 2.4; in experiment [3] it was 0.5. The IC50 worked out at 14.5 nM in experiment [4], 3 nM in experiment [5] and 6 nM in experiment [6].

With `O=C(O[C@H]1CN2CCC1CC2)N(Cc1ccccc1)Cc1cccs1`, the Ratio IC50 in experiment [2] came out at 3.95; in experiment [3] it was 0.4. Besides, the IC50 stood at 88.9 nM in experiment [4], 8.8 nM in experiment [5] and 22.5 nM in experiment [6].

As to `CC(C)N(C(=O)O[C@H]1CN2CCC1CC2)c1ccccc1`, the Ratio IC50 in experiment [2] came out at 2.1; in experiment [3], 0.6. Also, the concentration for half-maximal inhibition (IC50) in experiment [4] amounted to 1360 nM; in experiment [5], 428 nM; in experiment [6] it was 659 nM.

For `CCCCN(C(=O)O[C@H]1C[N+]2(CCCc3ccccc3)CCC1CC2)c1ccccc1`, the Ratio IC50 in experiment [2] was found to be 22.1; in experiment [3], 3.1. The IC50 in experiment [4] was 17.7 nM; in experiment [5], 2.5 nM; in experiment [6], 0.8 nM.
